Key:
Format in all cases: organism-based
Phaseolus vulgaris [1] = experiment: Phytotoxicity against Phaseolus vulgaris (White dry bean) assessed as visual crop injury relative to control; details: in vivo
Phaseolus vulgaris [2] = experiment: Phytotoxicity against Phaseolus vulgaris (Kidney) dry bean assessed as visual crop injury relative to control; details: in vivo
Phaseolus vulgaris [3] = experiment: Phytotoxicity against Phaseolus vulgaris (White dry bean) assessed as reduction in plant height applied pre-emergence relative to control; parameters: scale not given: the % may be the effect or the level left; details: in vivo
Phaseolus vulgaris [4] = experiment: Phytotoxicity against Phaseolus vulgaris (Black dry bean) assessed as reduction in plant height applied pre-emergence relative to control; parameters: scale not given: the % may be the effect or the level left; details: in vivo
Phaseolus vulgaris [5] = experiment: Phytotoxicity against Phaseolus vulgaris (White dry bean) assessed as visual crop injury applied pre-emergence relative to control; details: in vivo
Phaseolus vulgaris [6] = experiment: Phytotoxicity against Phaseolus vulgaris (Cranberry dry bean) assessed as visual crop injury applied pre-emergence relative to control; details: in vivo
Phaseolus vulgaris [7] = experiment: Phytotoxicity against Phaseolus vulgaris (Pink dry bean) assessed as visual crop injury applied post-emergence relative to control; details: in vivo
Phaseolus vulgaris [8] = experiment: Phytotoxicity against Phaseolus vulgaris (Kidney dry bean) assessed as visual crop injury applied […] relative to control; details: in vivo
Phaseolus vulgaris [9] = experiment: Phytotoxicity against Phaseolus vulgaris (White dry bean) assessed as visual crop injury applied post-emergence relative to control; details: in vivo, other
Phaseolus vulgaris [10] = experiment: Phytotoxicity against Phaseolus vulgaris (Yellow eye dry bean) assessed as reduction in shoot dry weight applied pre-emergence relative to control; parameters: scale not given: the % may be the effect or the level left; details: in vivo
Phaseolus vulgaris [11] = experiment: Phytotoxicity against Phaseolus vulgaris (White dry bean) assessed as reduction in shoot dry weight applied pre-emergence relative to control; parameters: scale not given: the % may be the effect or the level left; details: in vivo
Phaseolus vulgaris [12] = experiment: Phytotoxicity against Phaseolus vulgaris (Pinto dry bean) assessed as reduction in shoot dry weight applied pre-emergence relative to control; parameters: scale not given: the % may be the effect or the level left; details: in vivo
Phaseolus vulgaris [13] = experiment: Phytotoxicity against Phaseolus vulgaris (Otebo dry bean) assessed as reduction in shoot dry weight applied pre-emergence relative to control; parameters: scale not given: the % may be the effect or the level left; details: in vivo
Phaseolus vulgaris [14] = experiment: Phytotoxicity against Phaseolus vulgaris (Black dry bean) assessed as reduction in shoot dry weight applied pre-emergence relative to control; parameters: scale not given: the % may be the effect or the level left; details: in vivo
Phaseolus vulgaris [15] = experiment: Phytotoxicity against Phaseolus vulgaris (Yellow eye dry bean) assessed as reduction in plant height applied pre-emergence relative to control; parameters: scale not given: the % may be the effect or the level left; details: in vivo
Phaseolus vulgaris [16] = experiment: Phytotoxicity against Phaseolus vulgaris (Pinto dry bean) assessed as reduction in plant height applied pre-emergence relative to control; parameters: scale not given: the % may be the effect or the level left; details: in vivo
Phaseolus vulgaris [17] = experiment: Phytotoxicity against Phaseolus vulgaris (Otebo dry bean) assessed as reduction in plant height applied pre-emergence relative to control; parameters: scale not given: the % may be the effect or the level left; details: in vivo

Row | SMILES | Activity (Phaseolus vulgaris [3]) | Activity (Phaseolus vulgaris [4]) | Activity (Phaseolus vulgaris [5]) | Activity (Phaseolus vulgaris [6]) | Activity (Phaseolus vulgaris [8]) | Activity (Phaseolus vulgaris [14]) | other results
1 | CCc1cccc(CC)c1N(COC)C(=O)CCl [ALACHLOR] |  |  |  |  |  |  | Activity (Phaseolus vulgaris [1]): 5.6%; Activity (Phaseolus vulgaris [2]): 0.5%
2 | C#CCN1C(=O)COc2cc(F)c(N3C(=O)C4=C(CCCC4)C3=O)cc21 [FLUMIOXAZIN] | 28% | 23% | 17% | 4% |  |  | 
3 | CS(=O)(=O)NC(=O)c1cc(Oc2ccc(C(F)(F)F)cc2Cl)ccc1[N+](=O)[O-] [FOMESAFEN] |  |  |  |  | 1.4% |  | Activity (Phaseolus vulgaris [7]): 5%
4 | CCc1cnc(C2=NC(C)(C(C)C)C(=O)N2)c(C(=O)O)c1 (stereo not given) [IMAZETHAPYR] | 40% | 40% |  |  | 1.8% |  | Activity (Phaseolus vulgaris [9]): 11%
5 | CON(C)C(=O)Nc1ccc(Cl)c(Cl)c1 [LINURON] | 24% | 24% | 49% | 4% |  | 26% | Activity (Phaseolus vulgaris [10]): 26%; Activity (Phaseolus vulgaris [11]): 26%; Activity (Phaseolus vulgaris [12]): 26%; Activity (Phaseolus vulgaris [13]): 26%; Activity (Phaseolus vulgaris [15]): 24%; Activity (Phaseolus vulgaris [16]): 24%; Activity (Phaseolus vulgaris [17]): 24%
6 | CCc1cccc(C)c1N(C(=O)CCl)[C@@H](C)COC [S-METOLACHLOR] |  |  |  |  |  | 16% | 
